Among the data in paper PMC2665256 (Biochemical and biophysical research communications, 2009) are IC50 values, retold here.

Each structure is given as a SMILES string.

Broadly, the IC50 is the concentration that inhibits the measured activity by half. The low end stands for greater potency, the high end for weaker potency.

The assay addresses acyl-coenzyme A:cholesterol acyltransferase (ACAT). Type of assay: biochemical, Mus musculus.

In turn, `CCCCCCCCCC[Si](C)(C)CCC(=O)NC(Cc1ccc(C)cc1)c1ccccc1` (centres unmarked) [58-035] yielded an IC50 of 0.4 ± 0.2 µM.
To `Cc1ccc(Cn2nc(C(=O)N[C@@H]3C(C)(C)[C@@H]4CC[C@@]3(C)C4)cc2-c2ccc(Cl)c(C)c2)cc1` [SR144528] belongs 3.6 ± 1.1 µM.
